pIC50, pKd: −log10 of the molar value.
Tests used:
H2887 NSCLC cell line = assay: Cellular growth inhibition (CellTiter Glo viability assay); assay type: cell-based; details: Homo sapiens, NCI-H2887, 96 h; read-out: GI50 this paper
[1] = tested on: BT-20 breast cancer cell line; details: dasatinib, cited from earlier work
Calu6 NSCLC cell line = details: dasatinib, cited from earlier work
H322 NSCLC cell line = assay: Cellular growth inhibition (CellTiter Glo viability assay); assay type: cell-based; details: Homo sapiens, NCI-H322, 96 h; read-out: GI50 this paper
HCC78 NSCLC cell line = details: dasatinib, cited from earlier work
H460 NSCLC cell line = details: dasatinib, cited from earlier work
[2] = tested on: HCC1937 breast cancer cell line; details: dasatinib, cited from earlier work
HOP62 NSCLC cell line = assay: Cellular growth inhibition (CellTiter Glo viability assay); assay type: cell-based; details: Homo sapiens, HOP-62, 96 h; read-out: GI50 this paper
H1568 NSCLC cell line = assay: as above; assay type: cell-based; details: Homo sapiens, NCI-H1568, 96 h; read-out: GI50 this paper
LCLC103H NSCLC cell line = details: dasatinib, cited from earlier work
MAP2K1 = MAP2K1 (Homo sapiens, UniProt Q02750); assay: biochemical
Procedure: (§1) For in vitro association experiments 4×10^8 PC9 cells were lysed in buffer containing 20 mM HEPES pH 7.5, 400 mM NaCl. 0.25% Triton X-100, 1 mM DTT, 1.5 mM MgCl2, 0.5 mM ZnCl2, 0.5 mM EDTA, 0.5 mM EGTA, 1600 U/ml Benzonase plus additives (10 μg/ml aprotinin, 10 μg/ml leupeptin, 1 mM PMSF, 1 mM Na3VO4, 10 mM NaF). After centrifugation the supernatant was adjusted to 1 M NaCl, filtered through a 0.45 μm celluloseacetate filter and subjected to KinAffinity™ beads representing several different broad-spectrum kinase inhibitors immobilized on Sepharose beads. For each in vitro association experiment 750 μl cell extract (4 mg/ml) were incubated with 30 μl KinAffinity™ beads for 2.5 h at 4° C. […] The extracted peptides were derivatized for quantitative mass spectrometry using the TMT 6-plex reagent according to the manufactures instructions and were subsequently combined for mass spectrometric analysis.
(§2) Mass spectrometric analysis of the labeled and combined peptide fractions was carried out by on-line nanoLC-MS/MS. […] The resulting fragmentation spectra were also recorded in the linear ion trap.
(§3) Regarding the search parameters, the minimal peptide length was set to 6 amino acids, trypsin was selected as proteolytic enzyme and maximally 2 missed cleavage sites were allowed. […] The intensities of the TMT reporter ions were read from the msm files. […]

MAP2K2 = MAP2K2 (Homo sapiens, UniProt P36507); assay: biochemical
Procedure: as §1, §2, §3

MET = MET (Homo sapiens, UniProt P08581); assay: KinAffinity target profiling; assay type: binding; set-up: endogenous in cells; host or cells: PC9 cells (lysate); details: PC9 cell extract, read-out: KD_free
Procedure: as §1, §2, §3

EPHA2 = target: T1, EPHA2 (Homo sapiens, UniProt P29317); assay: KinAffinity target profiling; assay type: binding; details: PC9 cell extract, read-out: KD_free
T1 construct: PC9 cells were lysed in buffer containing 20 mM HEPES pH 7.5; endogenous in cells; host or cells: PC9 cell extract
Procedure: (§4) For in vitro association experiments 4×10^8 PC9 cells were lysed in buffer containing 20 mM HEPES pH 7.5, 400 mM NaCl. 0.25% Triton X-100, 1 mM DTT, 1.5 mM MgCl2, 0.5 mM ZnCl2, 0.5 mM EDTA, 0.5 mM EGTA, 1600 U/ml Benzonase plus additives (10 μg/ml aprotinin, 10 μg/ml leupeptin, 1 mM PMSF, 1 mM Na3VO4, 10 mM NaF). After centrifugation the supernatant was adjusted to 1 M NaCl, filtered through a 0.45 μm celluloseacetate filter and subjected to KinAffinity™ beads representing several different broad-spectrum kinase inhibitors immobilized on Sepharose beads. For each in vitro association experiment 750 μl cell extract (4 mg/ml) were incubated with 30 μl KinAffinity™ beads for 2.5 h at 4° C. […] Alternatively, the inhibitor (3 nM, 30 nM, 100 nM, 300 nM, 3 μM) and KinAffinity™ beads were added simultaneously to the cell extract. […] The extracted peptides were derivatized for quantitative mass spectrometry using the TMT 6-plex reagent according to the manufactures instructions and were subsequently combined for mass spectrometric analysis.
(§5) Mass spectrometric analysis of the labeled and combined peptide fractions was carried out by on-line nanoLC-MS/MS. The samples were loaded directly by an Agilent 1200 nanoflow system (Agilent Technologies) on a 15 cm fused silica emitter (New Objective) packed in-house with reversed phase material (Reprusil-Pur C18-AQ, 3 μm, Dr. Maisch GmbH) at a flow of […]. The bound peptides were eluted by a gradient from 2% to 40% solvent B (80% ACN, 0.5% HOAc) at a flow of […] and sprayed directly into an LTQ-Orbitrap XL mass spectrometer (Thermo Fischer Scientific) at a spray voltage of 2 kV applying a nano electrospray ion source (ProxeonBiosystems). […] The resulting fragmentation spectra were also recorded in the linear ion trap.
as §3

MLTK = target: T2, MLTK (Homo sapiens, UniProt Q9NYL2); assay: KinAffinity target profiling; assay type: binding; details: PC9 cell extract, read-out: KD_free
T2 construct: endogenous in cells; host or cells: PC9 cells (lysate)
Procedure: as §4, §5, §3

PTK6 = target: T3, PTK6 (Homo sapiens, UniProt Q13882); assay: KinAffinity target profiling; assay type: binding; details: PC9 cell extract, read-out: KD_free
T3 construct: PC9 cells were lysed in buffer; endogenous in cells; host or cells: PC9 (NSCLC) cell extract
Procedure: as §4, §5, §3

[3] = Huang et al. 2007, read-out: GI50 literature
[4] = Sos et al. 2009, read-out: GI50 literature

T3 sequence (Q13882 whole entry): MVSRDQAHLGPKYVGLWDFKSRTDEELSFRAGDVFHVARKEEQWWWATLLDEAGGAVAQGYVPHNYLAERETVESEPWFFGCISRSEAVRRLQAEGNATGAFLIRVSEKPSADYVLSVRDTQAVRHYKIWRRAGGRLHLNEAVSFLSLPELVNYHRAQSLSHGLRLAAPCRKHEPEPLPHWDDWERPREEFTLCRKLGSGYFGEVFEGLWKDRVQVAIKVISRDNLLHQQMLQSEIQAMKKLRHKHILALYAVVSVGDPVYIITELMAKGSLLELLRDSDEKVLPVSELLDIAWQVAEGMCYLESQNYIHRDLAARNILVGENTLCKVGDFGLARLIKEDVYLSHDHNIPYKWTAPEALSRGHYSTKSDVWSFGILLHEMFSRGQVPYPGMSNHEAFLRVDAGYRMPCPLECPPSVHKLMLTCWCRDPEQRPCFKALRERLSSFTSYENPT
MAP2K2, sequence (P36507 whole entry): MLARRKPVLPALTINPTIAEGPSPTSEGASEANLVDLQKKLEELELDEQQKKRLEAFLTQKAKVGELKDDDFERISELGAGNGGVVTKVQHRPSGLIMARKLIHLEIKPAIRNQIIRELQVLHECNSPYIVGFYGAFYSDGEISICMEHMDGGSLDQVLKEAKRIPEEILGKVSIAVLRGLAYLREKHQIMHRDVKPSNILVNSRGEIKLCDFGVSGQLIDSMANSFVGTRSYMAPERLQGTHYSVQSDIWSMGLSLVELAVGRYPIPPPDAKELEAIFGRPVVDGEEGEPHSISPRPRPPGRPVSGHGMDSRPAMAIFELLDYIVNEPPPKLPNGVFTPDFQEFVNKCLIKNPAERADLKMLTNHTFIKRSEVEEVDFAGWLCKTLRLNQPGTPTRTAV
MET, sequence (P08581 25-1390): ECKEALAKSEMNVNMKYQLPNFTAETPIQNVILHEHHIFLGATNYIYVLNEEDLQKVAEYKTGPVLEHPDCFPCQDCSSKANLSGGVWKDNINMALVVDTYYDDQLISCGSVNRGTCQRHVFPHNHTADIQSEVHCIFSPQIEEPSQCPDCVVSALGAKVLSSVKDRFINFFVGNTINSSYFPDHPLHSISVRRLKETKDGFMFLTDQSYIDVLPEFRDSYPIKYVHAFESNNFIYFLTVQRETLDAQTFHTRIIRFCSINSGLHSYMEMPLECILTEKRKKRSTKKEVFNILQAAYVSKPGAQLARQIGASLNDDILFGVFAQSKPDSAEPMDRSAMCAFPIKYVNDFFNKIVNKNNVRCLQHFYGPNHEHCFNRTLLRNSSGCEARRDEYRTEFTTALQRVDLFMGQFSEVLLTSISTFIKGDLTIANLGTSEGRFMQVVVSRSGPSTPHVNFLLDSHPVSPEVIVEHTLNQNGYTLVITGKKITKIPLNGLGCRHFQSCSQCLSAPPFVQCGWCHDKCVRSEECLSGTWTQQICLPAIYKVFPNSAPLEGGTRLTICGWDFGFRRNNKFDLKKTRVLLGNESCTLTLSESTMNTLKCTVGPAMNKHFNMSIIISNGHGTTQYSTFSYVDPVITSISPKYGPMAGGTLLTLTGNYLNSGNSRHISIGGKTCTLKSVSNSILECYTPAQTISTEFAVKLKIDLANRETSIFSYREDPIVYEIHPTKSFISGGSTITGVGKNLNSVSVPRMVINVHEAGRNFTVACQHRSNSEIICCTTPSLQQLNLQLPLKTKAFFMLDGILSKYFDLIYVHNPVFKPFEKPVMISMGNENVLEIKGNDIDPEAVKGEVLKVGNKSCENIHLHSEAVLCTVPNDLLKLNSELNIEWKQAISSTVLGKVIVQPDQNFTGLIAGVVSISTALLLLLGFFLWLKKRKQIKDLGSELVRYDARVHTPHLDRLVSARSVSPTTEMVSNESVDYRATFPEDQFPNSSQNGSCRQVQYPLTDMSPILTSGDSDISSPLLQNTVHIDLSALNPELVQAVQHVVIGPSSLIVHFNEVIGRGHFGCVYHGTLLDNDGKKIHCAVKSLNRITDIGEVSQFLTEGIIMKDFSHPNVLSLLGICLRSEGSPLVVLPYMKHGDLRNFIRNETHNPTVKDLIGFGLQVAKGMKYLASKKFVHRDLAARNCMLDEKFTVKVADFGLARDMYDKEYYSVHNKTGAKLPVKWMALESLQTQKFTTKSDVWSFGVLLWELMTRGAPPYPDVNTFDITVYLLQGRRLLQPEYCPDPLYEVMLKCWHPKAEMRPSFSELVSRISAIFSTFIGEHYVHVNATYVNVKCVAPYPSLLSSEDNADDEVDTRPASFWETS
T1 sequence (P29317 24-976): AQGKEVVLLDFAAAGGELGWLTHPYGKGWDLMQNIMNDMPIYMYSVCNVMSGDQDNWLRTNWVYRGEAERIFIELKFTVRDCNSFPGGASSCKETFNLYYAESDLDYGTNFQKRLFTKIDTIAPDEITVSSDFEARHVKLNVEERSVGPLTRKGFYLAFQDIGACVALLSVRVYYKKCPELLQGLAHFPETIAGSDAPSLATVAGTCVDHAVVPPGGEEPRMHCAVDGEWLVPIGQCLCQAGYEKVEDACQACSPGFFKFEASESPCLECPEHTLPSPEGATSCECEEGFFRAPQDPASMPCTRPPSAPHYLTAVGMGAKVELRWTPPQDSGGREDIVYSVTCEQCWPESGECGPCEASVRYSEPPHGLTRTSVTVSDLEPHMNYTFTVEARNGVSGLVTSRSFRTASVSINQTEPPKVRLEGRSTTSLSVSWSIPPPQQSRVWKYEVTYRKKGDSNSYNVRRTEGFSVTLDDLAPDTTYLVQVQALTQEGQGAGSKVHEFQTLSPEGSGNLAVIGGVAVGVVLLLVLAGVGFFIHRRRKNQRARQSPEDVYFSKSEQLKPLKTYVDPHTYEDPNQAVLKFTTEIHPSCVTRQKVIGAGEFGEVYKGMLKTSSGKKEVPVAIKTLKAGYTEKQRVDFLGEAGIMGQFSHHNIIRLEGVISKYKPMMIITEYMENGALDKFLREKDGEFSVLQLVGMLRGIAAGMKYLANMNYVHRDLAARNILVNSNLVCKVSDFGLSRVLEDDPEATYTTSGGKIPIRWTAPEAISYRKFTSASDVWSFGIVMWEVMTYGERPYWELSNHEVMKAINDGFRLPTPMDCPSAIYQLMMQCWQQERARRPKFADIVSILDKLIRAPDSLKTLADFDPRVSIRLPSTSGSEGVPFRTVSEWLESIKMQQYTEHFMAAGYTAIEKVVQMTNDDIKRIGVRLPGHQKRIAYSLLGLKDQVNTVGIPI
T2 sequence (Q9NYL2 whole entry): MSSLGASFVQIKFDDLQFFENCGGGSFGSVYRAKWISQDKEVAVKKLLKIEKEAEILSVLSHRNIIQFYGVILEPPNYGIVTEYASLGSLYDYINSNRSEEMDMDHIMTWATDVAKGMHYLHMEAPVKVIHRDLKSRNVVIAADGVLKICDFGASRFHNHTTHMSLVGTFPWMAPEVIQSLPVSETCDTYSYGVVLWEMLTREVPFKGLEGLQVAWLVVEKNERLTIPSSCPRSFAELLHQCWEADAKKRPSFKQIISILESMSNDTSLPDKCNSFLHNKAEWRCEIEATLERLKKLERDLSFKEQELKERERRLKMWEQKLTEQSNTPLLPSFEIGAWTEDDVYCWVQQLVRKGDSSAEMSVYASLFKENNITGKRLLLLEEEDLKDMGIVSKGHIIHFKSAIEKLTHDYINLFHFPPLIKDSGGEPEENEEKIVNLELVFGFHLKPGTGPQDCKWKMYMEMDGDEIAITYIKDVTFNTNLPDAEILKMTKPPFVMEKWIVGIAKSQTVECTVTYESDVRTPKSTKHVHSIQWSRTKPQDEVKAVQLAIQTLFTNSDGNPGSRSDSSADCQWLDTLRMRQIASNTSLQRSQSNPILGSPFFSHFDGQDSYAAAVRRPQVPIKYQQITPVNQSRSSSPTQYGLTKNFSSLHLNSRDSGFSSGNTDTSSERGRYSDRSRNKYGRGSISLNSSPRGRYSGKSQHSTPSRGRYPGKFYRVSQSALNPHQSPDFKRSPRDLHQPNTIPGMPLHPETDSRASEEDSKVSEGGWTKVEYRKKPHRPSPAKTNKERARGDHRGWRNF
MAP2K1, sequence (Q02750 whole entry): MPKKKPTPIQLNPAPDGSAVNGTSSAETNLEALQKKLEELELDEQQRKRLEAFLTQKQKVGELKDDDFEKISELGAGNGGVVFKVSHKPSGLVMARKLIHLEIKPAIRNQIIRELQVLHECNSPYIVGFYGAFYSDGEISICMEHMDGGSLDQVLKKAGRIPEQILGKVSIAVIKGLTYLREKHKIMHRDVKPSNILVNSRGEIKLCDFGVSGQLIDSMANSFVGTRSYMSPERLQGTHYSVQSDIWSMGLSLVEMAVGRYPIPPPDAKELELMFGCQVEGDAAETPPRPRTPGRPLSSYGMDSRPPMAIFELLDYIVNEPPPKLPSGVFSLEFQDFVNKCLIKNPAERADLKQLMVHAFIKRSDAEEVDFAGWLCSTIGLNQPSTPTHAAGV

Cc1nc(Nc2ncc(C(=O)Nc3c(C)cccc3Cl)s2)cc(N2CCN(CCO)CC2)n1 [dasatinib, N-(2-chloro-6-methylphenyl)-2-[[6-[4-(2-hydroxyethyl)piperazin-1-yl]-2-methylpyrimidin-4-yl]amino]-1,3-thiazole-5-carboxamide]
GI50 (H2887 NSCLC cell line): 0.176 µM | GI50 [1, 3]: 0.165 µM | pIC50 ([1]; read-out: Class): > 6.00 | GI50 (Calu6 NSCLC cell line; [4]): 22.5 µM | pIC50 (Calu6 NSCLC cell line; read-out: Class): < 6.00 | GI50 (H322 NSCLC cell line): 2.1 µM | GI50 (HCC78 NSCLC cell line; [4]): 13.9 µM | pIC50 (HCC78 NSCLC cell line; read-out: Class): < 6.00 | GI50 (H460 NSCLC cell line; [4]): 24.2 µM | pIC50 (H460 NSCLC cell line; read-out: Class): < 6.00 | GI50 [2, 3]: 0.07 µM | Sensitivity class [2]: < 1000 nM | GI50 (HOP62 NSCLC cell line): 0.014 µM | GI50 (H1568 NSCLC cell line): 5.44 µM | GI50 (LCLC103H NSCLC cell line; [4]): 13.9 µM | pIC50 (LCLC103H NSCLC cell line; read-out: Class): < 6.00

CN1CCN(CCOc2cc(OC3CCOCC3)c3c(Nc4c(Cl)ccc5c4OCO5)ncnc3c2)CC1 [saracatinib, N-(5-Chloro-1,3-benzodioxol-4-yl)-7-[2-(4-methyl-1-piperazinyl)ethoxy]-5-[(tetrahydro-2H-pyran-4-yl)oxy]-4-quinazolinamine]
pKd (MAP2K1): 5.91 | pKd (MAP2K2): 5.64 | pKd (MET): 5.18 | pKd (EPHA2): 6.97 | pKd (MLTK): 6.12 | pKd (PTK6): 7.52

— patent publication US9328386B2, “Markers for susceptibility to an inhibitor of an Src-family kinase” (Evotec (München) GmbH, priority 2011, dated 2016)
